Several values for one entry are separate records, joined by “and”; a condition that tells them apart may be missing. Identical values can stand only once.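 In this assay, cells in 96-well plates receive the compound at five concentrations for 48 hours. Endpoints are linearly interpolated between the surrounding concentrations. Abbreviation: GI50, concentration required for 50% inhibition of growth. TGI: concentration producing complete growth inhibition.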
Key:
Assay in all cases: NCI tumour cell line growth inhibition, 48 h
[1] = test system: SW-620 colon
[2] = test system: 786-0 renal
[3] = test system: HL-60(TB) leukemia
[4] = test system: IGROV1 ovarian
[5] = test system: NCI-H460 lung
[6] = test system: SN12C renal
[7] = test system: HCT-15 colon
[8] = test system: COLO 205 colon
[9] = test system: LOX IMVI melanoma

SMILES | GI50 [1] | TGI [1] [µM] | GI50 [2] [µM] | TGI [2] [µM] | GI50 [3] | TGI [3] | GI50 [4] | TGI [4] [µM] | GI50 [5] | TGI [5] [µM] | GI50 [6] [µM] | TGI [6] [µM] | GI50 [7] | TGI [7] [µM] | GI50 [8] | TGI [8] | GI50 [9] | TGI [9] [µM]
C/C=C/C/C=C/[C@H](C)C[C@H](O)[C@@H]1C[C@@H]2O[C@H]2/C=C/[C@@H]2OC(C)(C)O[C@H]2/C=C/C[C@H](C)CC(=O)O1 | 22.7 µM | > 100 | 69.7 | > 100 | 5.6 µM | 30.9 µM | 10.5 µM | > 100 | 5.65 µM | > 100 | 5.23 | > 100 | 4.84 µM | > 100 | 8.02 µM | > 100 µM | 7.62 µM | > 100
COCCOCCOCc1n(Cc2ccc3ccccc3c2)c2ccccc2[n+]1Cc1ccc2ccccc2c1 | 0.624 µM | 2.2 | 1.31 | 2.65 | 0.115 µM | 0.38 µM | 0.328 µM | 1.55 | 0.483 µM | 1.85 | 0.372 | 1.46 | 1.69 µM | 3.36 | 0.27 µM | 1.15 µM | 0.419 µM | 1.67
Cn1c(=O)nc2n(-c3ccc(Cl)cc3)c(-c3ccccc3)c(-c3ccccc3)nc-2c1=O |  | > 100 |  | > 100 |  | 58.6 µM |  | > 100 |  | 62.5 |  | > 100 |  | > 100 |  | > 100 µM |  | 
CC1=C(/C=C/C(=O)CC(=O)/C=C/C2=C(C)CCCC2(C)C)C(C)(C)CCC1 | 25.7 µM | > 100 | 25.2 | > 100 | 5.42 µM | 24.2 µM | 21 µM | 88.5 | 18.6 µM | 82.1 | 40.3 | > 100 | 30.8 µM | > 100 | 35.9 µM | > 100 µM | 18.5 µM | 81
O=C1CC[C@H](N2Cc3c(OCc4ccc(CN5CCOCC5)cc4)cccc3C2=O)C(=O)N1 | > 100 µM | > 100 | > 100 | > 100 | 77.6 µM | > 100 µM | > 100 µM | > 100 | > 100 µM | > 100 | > 100 | > 100 | > 100 µM | > 100 | > 100 µM | > 100 µM | > 100 µM | > 100
CNC(=O)c1cc(Oc2cccc3nc(NC(=O)Nc4cc(C(F)(F)F)cc(C(F)(F)F)c4)ccc23)ccn1 | 16.9 µM | > 100 | 2.41 | 5.73 | 23.4 µM | 77.2 µM |  |  | 4.16 µM | 36.6 | 5.27 | > 100 | 18.1 µM | > 100 | 10.8 µM | 23.8 µM | 3.26 µM | 29.5
C=C1c2ccccc2C(=O)c2c1c1c(C(=O)OC)c(OC(=O)OCc3ccc([N+](=O)[O-])cc3)ccc1n2Cc1ccccc1 | 5.63 µM | > 100 | 7.17 | 26 |  |  | 14 µM | 41.9 | 26.8 µM | 88.6 | 11 | 42.6 | 34.3 µM | > 100 | 32.4 µM | > 100 µM | 35.7 µM | > 100
O=C1/C=C/[C@@H](O)[C@@H]2C[C@@H](O)C[C@H]2/C=C/CCC[C@H](CCc2ccc3ncccc3c2)O1 | 0.265 µM | 0.768 | 0.218 | 0.504 | 0.268 µM | 0.691 µM | 0.394 µM | > 34 | 0.36 µM | > 46.8 | 0.334 | > 100 | 0.337 µM | 14.5 | 0.19 µM | 0.343 µM | 0.152 µM | 0.333
Cc1cc(-c2nnc(/C=C/c3ccc4c(c3)OCO4)o2)n[nH]1 | 2.85 µM | 19.8 | 16.7 | > 50 | 1.34 µM | 3.99 µM | 9.57 µM | > 50 | 15.1 µM | > 50 | 30 | > 50 | 11.4 µM | > 50 | 15.4 µM | > 50 µM | 15.9 µM | > 50
O=[N+]([O-])c1cccc(-c2nc(-c3ccc(Cl)cc3Cl)cn2-c2ccccc2)c1 | 0.617 µM | 1.22 | 0.995 | 2.88 | > 33.3 µM | > 33.3 µM | 1.2 µM | 3.86 | 0.598 µM | 1.12 | 1.19 | > 7.91 | 1.13 µM | > 23.2 | 0.485 µM | 0.987 µM | 2.98 µM | > 30.7
CCOC(=O)Nc1nc2ccccc2[nH]1 | 3.9 µM and 3.17 µM | > 100 | 7.37 | > 100 | 2.64 µM and 2.02 µM | 6.64 µM and > 20.1 µM | > 26.6 µM and 4.1 µM | > 100 | 4.27 µM and 3.6 µM | > 100 |  | > 100 | 3.89 µM and 4.14 µM | > 100 | 3.62 µM and 3.27 µM | 15.2 µM and > 32.6 µM | 7.1 µM and 6.82 µM | > 100
S=c1o[nH]c(-c2ccccc2)c1C=Nc1ccccc1 |  | > 100 |  | > 100 |  | > 100 µM |  | > 100 |  | > 100 |  | > 100 |  | > 100 |  | > 100 µM |  | > 100
CCC1C(C)C=NN1c1nc(N)nc(C(C#N)=Nc2ccc(N(C)C)cc2)n1 (centres undefined) | 12.1 µM | 26.8 | 17.4 | > 50 | 7.62 µM | > 50 µM | 30.9 µM | > 50 | 11.1 µM | 24.5 | 9.76 | 18.9 | 15.6 µM | > 50 |  |  | 8.53 µM | 15.7
Nc1ccccc1C#C/C=C\C#CC#C/C=C\C#Cc1ccccc1N | 7.54 µM | 30.7 | 9.76 | 24.6 |  |  | 2.21 µM | 17.9 | 8.32 µM | 25.6 | 3.05 | 16.4 | 3.74 µM | 24.2 | 13.5 µM | 35.9 µM | 1.75 µM | 11.6
